Results taken from US11111251B2, “Positive allosteric modulators of the muscarinic acetylcholine receptor M1” (Vanderbilt University, priority 2016, dated 2021).

Molecular target: T1, human mAChR M1 (Homo sapiens, UniProt P11229)
T1 sequence (P11229 1-460): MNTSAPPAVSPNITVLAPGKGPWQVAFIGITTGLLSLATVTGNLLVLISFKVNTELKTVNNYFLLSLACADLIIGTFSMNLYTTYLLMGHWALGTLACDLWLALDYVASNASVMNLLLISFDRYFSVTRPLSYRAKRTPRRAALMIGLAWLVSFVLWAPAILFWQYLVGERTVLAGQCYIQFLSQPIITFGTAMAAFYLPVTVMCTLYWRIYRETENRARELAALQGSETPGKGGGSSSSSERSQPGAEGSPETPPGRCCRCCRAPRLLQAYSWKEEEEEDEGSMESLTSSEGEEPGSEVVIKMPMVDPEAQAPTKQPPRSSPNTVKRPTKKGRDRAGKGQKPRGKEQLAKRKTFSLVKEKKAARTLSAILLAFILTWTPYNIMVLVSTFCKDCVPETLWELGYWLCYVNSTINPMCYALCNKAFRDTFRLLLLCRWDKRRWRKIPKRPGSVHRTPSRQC
Experiment: mAChR M1 cell-based functional assay: calcium mobilization, positive allosteric modulator mode (increase in EC20 acetylcholine response)
Settings: Table 2, human M1; for EC50: read-out: Human M1 EC50; for Emax: read-out: Human M1 Emax (%)
Method in brief: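 Calcium-flux assay in CHO-K1 cells stably expressing human M1, loaded with Fluo-4 AM (50 min, 37 °C) and read at 1 Hz. Compound (11-point, 1:3 series) was added at 4 s, EC20 acetylcholine at 144 s and EC80 at 230 s. PAM activity is the concentration-dependent rise in the EC20 response, fitted with a four-parameter logistic.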

Structure (SMILES) | EC50 [nM] | Emax [%]
Cn1ccc2nc(C(=O)N[C@H]3CCC[C@@H]3O)cc(Cc3ccc(-c4cscn4)cc3)c21 [Compound 458, N-[(1S,2S)-2-hydroxycyclopentyl]-1-methyl-7-[(4-thiazol-4-ylphenyl)methyl]pyrrolo[3,2-b]pyridine-5-carboxamide] | 129 | 73.4
Cn1ccc2nc(C(=O)N[C@H]3CC[C@@H]3O)cc(Cc3ccc(-c4cscn4)cc3)c21 [Compound 459, N-[(1S,2S)-2-hydroxycyclobutyl]-1-methyl-7-[(4-thiazol-4-ylphenyl)methyl]pyrrolo[3,2-b]pyridine-5-carboxamide] | 108 | 73.5
C[C@@H]1CC(NC(=O)c2cc(Cc3ccc(-c4cscn4)cc3)c3c(ccn3C)n2)C[C@H](C)O1 (stereo partly drawn) [Compound 460, N-[(2S,6R)-2,6-dimethyltetrahydropyran-4-yl]-1-methyl-7-[(4-thiazol-4-ylphenyl)methyl]pyrrolo[3,2-b]pyridine-5-carboxamide] | 379 | 70.3
Cn1ccc2nc(C(=O)NC3CCOC(C)(C)C3)cc(Cc3ccc(-c4cscn4)cc3)c21 (stereo not drawn) [Compound 461, N-(2,2-dimethyltetrahydropyran-4-yl)-1-methyl-7-[(4-thiazol-4-ylphenyl)methyl]pyrrolo[3,2-b]pyridine-5-carboxamide] | 410 | 70.8
Cn1ccc2nc(C(=O)N[C@H]3CCCOC3)cc(Cc3ccc(-c4cscn4)cc3)c21 [Compound 462, 1-methyl-N-[(3S)-tetrahydropyran-3-yl]-7-[(4-thiazol-4-ylphenyl)methyl]pyrrolo[3,2-b]pyridine-5-carboxamide] | 2050 | 67.9
Cn1ccc2nc(C(=O)N[C@@H]3CCCOC3)cc(Cc3ccc(-c4cscn4)cc3)c21 [Compound 463, 1-methyl-N-[(3R)-tetrahydropyran-3-yl]-7-[(4-thiazol-4-ylphenyl)methyl]pyrrolo[3,2-b]pyridine-5-carboxamide] | 1010 | 71.9
Cn1ccc2nc(C(=O)N[C@H]3CCOC3)cc(Cc3ccc(-c4cscn4)cc3)c21 [Compound 464, 1-methyl-N-[(3S)-tetrahydrofuran-3-yl]-7-[(4-thiazol-4-ylphenyl)methyl]pyrrolo[3,2-b]pyridine-5-carboxamide] | 1870 | 71.2
Cn1ccc2nc(C(=O)N[C@@H]3CCOC3)cc(Cc3ccc(-c4cscn4)cc3)c21 [Compound 465, 1-methyl-N-[(3R)-tetrahydrofuran-3-yl]-7-[(4-thiazol-4-ylphenyl)methyl]pyrrolo[3,2-b]pyridine-5-carboxamide] | 1870 | 72
Cn1ccc2nc(C(=O)NCC3CCOCC3)cc(Cc3ccc(-c4cscn4)cc3)c21 [Compound 466, 1-methyl-N-(tetrahydropyran-4-ylmethyl)-7-[(4-thiazol-4-ylphenyl)methyl]pyrrolo[3,2-b]pyridine-5-carboxamide] | 364 | 72.2
Cn1ccc2nc(C(=O)NC3COC3)cc(Cc3ccc(-c4cscn4)cc3)c21 [Compound 467, 1-methyl-N-(oxetan-3-yl)-7-[(4-thiazol-4-ylphenyl)methyl]pyrrolo[3,2-b]pyridine-5-carboxamide] | 2970 | 61.2
Cn1cc(-c2ccc(Cc3cc(C(=O)N[C@H]4CCOC[C@@H]4O)nc4ccn(C)c34)cn2)cn1 [Compound 468, N-[(3R,4S)-3-hydroxytetrahydropyran-4-yl]-1-methyl-7-[[6-(1-methylpyrazol-4-yl)-3-pyridyl]methyl]pyrrolo[3,2-b]pyridine-5-carboxamide] | 11.8 | 70
Cn1cc(-c2ccc(Cc3cc(C(=O)N[C@H]4CCCC[C@@H]4O)nc4ccn(C)c34)cn2)cn1 [Compound 469, N-[(1S,2S)-2-hydroxycyclohexyl]-1-methyl-7-[[6-(1-methylpyrazol-4-yl)-3-pyridyl]methyl]pyrrolo[3,2-b]pyridine-5-carboxamide] | 29.8 | 72.3
